Reference: article PMC12484723, “COOKIE-Pro: covalent inhibitor binding kinetics profiling on the proteome scale” (Nature Communications, 2025)

What was measured:
BLK = BLK (Homo sapiens, UniProt P51451); assay: COOKIE-Pro competition chemoproteomics in permeabilized Ramos cells (kinact, KI); assay type: cell-based
TEC kinase = molecular target: T1, TEC kinase (Homo sapiens, UniProt P42680); assay: as above; assay type: cell-based
T1 sequence (P42680 1-631): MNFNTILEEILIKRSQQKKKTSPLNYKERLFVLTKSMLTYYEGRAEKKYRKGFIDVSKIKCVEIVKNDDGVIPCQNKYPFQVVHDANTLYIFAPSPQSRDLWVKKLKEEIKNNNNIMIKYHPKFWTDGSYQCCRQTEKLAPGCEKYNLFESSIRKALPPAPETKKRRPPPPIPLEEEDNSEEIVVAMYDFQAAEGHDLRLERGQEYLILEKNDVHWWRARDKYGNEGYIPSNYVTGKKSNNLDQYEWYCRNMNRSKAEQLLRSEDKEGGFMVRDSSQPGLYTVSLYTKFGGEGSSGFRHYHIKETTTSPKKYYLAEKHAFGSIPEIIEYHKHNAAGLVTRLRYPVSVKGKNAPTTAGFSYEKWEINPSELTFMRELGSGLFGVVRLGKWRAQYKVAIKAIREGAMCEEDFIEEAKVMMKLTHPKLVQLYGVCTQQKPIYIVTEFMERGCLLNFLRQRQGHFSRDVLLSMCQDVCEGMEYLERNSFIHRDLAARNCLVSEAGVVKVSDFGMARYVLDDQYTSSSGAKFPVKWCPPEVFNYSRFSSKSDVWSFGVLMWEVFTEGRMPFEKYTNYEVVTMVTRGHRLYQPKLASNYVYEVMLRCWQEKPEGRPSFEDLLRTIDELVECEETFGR

Sequence of BLK (P51451 2-505): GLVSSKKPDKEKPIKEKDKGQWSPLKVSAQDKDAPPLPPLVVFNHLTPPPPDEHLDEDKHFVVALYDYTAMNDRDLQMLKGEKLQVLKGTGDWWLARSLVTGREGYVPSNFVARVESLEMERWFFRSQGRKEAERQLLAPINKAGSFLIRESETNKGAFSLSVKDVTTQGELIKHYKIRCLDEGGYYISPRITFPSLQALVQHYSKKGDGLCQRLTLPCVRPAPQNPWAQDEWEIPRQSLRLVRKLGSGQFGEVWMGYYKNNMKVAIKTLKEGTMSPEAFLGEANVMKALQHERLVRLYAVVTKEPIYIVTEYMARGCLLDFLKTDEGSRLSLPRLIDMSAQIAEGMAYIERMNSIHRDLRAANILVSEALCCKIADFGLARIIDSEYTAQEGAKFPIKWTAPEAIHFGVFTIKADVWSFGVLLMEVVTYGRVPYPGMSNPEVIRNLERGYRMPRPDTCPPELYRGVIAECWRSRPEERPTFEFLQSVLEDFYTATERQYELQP

Question: With C=CC(=O)N1CCC[C@@H](n2nc(-c3ccc(Oc4ccccc4)cc3)c3c(N)ncnc32)C1 [ibrutinib] as the molecule, how does the KI (inactivation) (BLK) read?
Answer: 28 nM

Question: What about the KI (inactivation) (TEC kinase) of the same molecule?
Answer: 233 nM
